# Test results: patent US20240300932A1, “N-PHENYLIMINE DERIVATIVE AND PREPARATION METHOD AND USE THEREOF” (Guizhou University, priority 2023, published 2024)
# What was measured:
# Assay in all cases: Post-emergence herbicidal activity test (stem and leaf spray, pot culture)
# Type in all cases: in vivo
# Details in all cases: 3 weeks after spraying
# [1] = system: Trifoliumre pensL.
# Outline: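 Pot-grown weeds in loam (pH 7), greenhouse at 20–30 °C, sprayed once post-emergence at the 2–3-leaf stage. Compound in acetone with Tween 80 plus methyl oleate oil (1.5 L/ha), applied at 10, 5 and 2.5 g/mu by spray tower. Effect scored 3 weeks after spraying, averaged over three repeats.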
# [2] = system: Setaria viridis
# Outline: (§1)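 Graded 0–5 on fresh-weight growth control rate 3 weeks after a single spray-tower application at 10, 5 or 2.5 g/mu. Compounds in acetone with Tween 80 and methyl oleate synergist (1.5 liters/ha), applied to greenhouse weeds at 2- to 3-leaf stage.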
# [3] = system: Amaranthus retroflexus
# Outline: as §1
# [4] = system: Echinochloa crusgalli
# Outline: as §1
# [5] = system: Abutilon theophrasti
# Outline: as §1
# [6] = system: Portulaca oleracea
# Outline: as §1
SMILES,"Post-emergence herbicidal activity, Trifoliumre pensL. (grade) ([1]; dosage 2.5 g/mu)","Post-emergence herbicidal activity, Trifoliumre pensL. (grade) ([1]; dosage 5 g/mu)","Post-emergence herbicidal activity, Trifoliumre pensL. (grade) ([1]; dosage 10 g/mu)","Post-emergence herbicidal activity, S. viridis (grade) ([2]; dosage 2.5 g/mu)","Post-emergence herbicidal activity, S. viridis (grade) ([2]; dosage 5 g/mu)","Post-emergence herbicidal activity, S. viridis (grade) ([2]; dosage 10 g/mu)","Post-emergence herbicidal activity, A. retroflexus (grade) ([3]; dosage 2.5 g/mu)","Post-emergence herbicidal activity, A. retroflexus (grade) ([3]; dosage 5 g/mu)","Post-emergence herbicidal activity, A. retroflexus (grade) ([3]; dosage 10 g/mu)","Post-emergence herbicidal activity, E. crusgalli (grade) ([4]; dosage 2.5 g/mu)","Post-emergence herbicidal activity, E. crusgalli (grade) ([4]; dosage 5 g/mu)","Post-emergence herbicidal activity, E. crusgalli (grade) ([4]; dosage 10 g/mu)","Post-emergence herbicidal activity, A. theophrasti (grade) ([5]; dosage 2.5 g/mu)","Post-emergence herbicidal activity, A. theophrasti (grade) ([5]; dosage 5 g/mu)","Post-emergence herbicidal activity, A. theophrasti (grade) ([5]; dosage 10 g/mu)","Post-emergence herbicidal activity, P. oleracea (grade) ([6]; dosage 2.5 g/mu)","Post-emergence herbicidal activity, P. oleracea (grade) ([6]; dosage 5 g/mu)","Post-emergence herbicidal activity, P. oleracea (grade) ([6]; dosage 10 g/mu)"
O=C1C2=C(CCCC2)C(=O)N1c1cc(OCc2nc(-c3cccc(Cl)c3)no2)c(Cl)cc1F [Compound A3],4 (Grade 4: the growth control rate is greater than or equal to 60% and less than 85%),5 (Grade 5: the growth control rate is greater than or equal to 85%),5 (Grade 5: the growth control rate is greater than or equal to 85%),2 (Grade 2: the growth control rate is greater than or equal to 20% and less than 40%),3 (Grade 3: the growth control rate is greater than or equal to 40% and less than 60%),4 (Grade 4: the growth control rate is greater than or equal to 60% and less than 85%),5 (Grade 5: the growth control rate is greater than or equal to 85%),5 (Grade 5: the growth control rate is greater than or equal to 85%),5 (Grade 5: the growth control rate is greater than or equal to 85%),1 (Grade 1: the growth control rate is greater than or equal to 5% and less than 20%),2 (Grade 2: the growth control rate is greater than or equal to 20% and less than 40%),3 (Grade 3: the growth control rate is greater than or equal to 40% and less than 60%),5 (Grade 5: the growth control rate is greater than or equal to 85%),5 (Grade 5: the growth control rate is greater than or equal to 85%),5 (Grade 5: the growth control rate is greater than or equal to 85%),4 (Grade 4: the growth control rate is greater than or equal to 60% and less than 85%),5 (Grade 5: the growth control rate is greater than or equal to 85%),5 (Grade 5: the growth control rate is greater than or equal to 85%)
Cc1ccc(-c2noc(COc3cc(N4C(=O)C5=C(CCCC5)C4=O)c(F)cc3Cl)n2)c(F)c1 [Compound A9],4 (Grade 4: the growth control rate is greater than or equal to 60% and less than 85%),5 (Grade 5: the growth control rate is greater than or equal to 85%),5 (Grade 5: the growth control rate is greater than or equal to 85%),2 (Grade 2: the growth control rate is greater than or equal to 20% and less than 40%),3 (Grade 3: the growth control rate is greater than or equal to 40% and less than 60%),4 (Grade 4: the growth control rate is greater than or equal to 60% and less than 85%),5 (Grade 5: the growth control rate is greater than or equal to 85%),5 (Grade 5: the growth control rate is greater than or equal to 85%),5 (Grade 5: the growth control rate is greater than or equal to 85%),1 (Grade 1: the growth control rate is greater than or equal to 5% and less than 20%),2 (Grade 2: the growth control rate is greater than or equal to 20% and less than 40%),3 (Grade 3: the growth control rate is greater than or equal to 40% and less than 60%),5 (Grade 5: the growth control rate is greater than or equal to 85%),5 (Grade 5: the growth control rate is greater than or equal to 85%),5 (Grade 5: the growth control rate is greater than or equal to 85%),4 (Grade 4: the growth control rate is greater than or equal to 60% and less than 85%),5 (Grade 5: the growth control rate is greater than or equal to 85%),5 (Grade 5: the growth control rate is greater than or equal to 85%)
O=C1C2=C(CCCC2)C(=O)N1c1cc(OCc2nc(-c3ccc(F)c(F)c3)no2)c(Cl)cc1F [Compound A14],4 (Grade 4: the growth control rate is greater than or equal to 60% and less than 85%),5 (Grade 5: the growth control rate is greater than or equal to 85%),5 (Grade 5: the growth control rate is greater than or equal to 85%),2 (Grade 2: the growth control rate is greater than or equal to 20% and less than 40%),3 (Grade 3: the growth control rate is greater than or equal to 40% and less than 60%),4 (Grade 4: the growth control rate is greater than or equal to 60% and less than 85%),5 (Grade 5: the growth control rate is greater than or equal to 85%),5 (Grade 5: the growth control rate is greater than or equal to 85%),5 (Grade 5: the growth control rate is greater than or equal to 85%),1 (Grade 1: the growth control rate is greater than or equal to 5% and less than 20%),2 (Grade 2: the growth control rate is greater than or equal to 20% and less than 40%),3 (Grade 3: the growth control rate is greater than or equal to 40% and less than 60%),5 (Grade 5: the growth control rate is greater than or equal to 85%),5 (Grade 5: the growth control rate is greater than or equal to 85%),5 (Grade 5: the growth control rate is greater than or equal to 85%),4 (Grade 4: the growth control rate is greater than or equal to 60% and less than 85%),5 (Grade 5: the growth control rate is greater than or equal to 85%),5 (Grade 5: the growth control rate is greater than or equal to 85%)
O=C1C2=C(CCCC2)C(=O)N1c1cc(OCc2nnc(-c3ccc([N+](=O)[O-])cc3F)o2)c(Cl)cc1F [Compound B20],4 (Grade 4: the growth control rate is greater than or equal to 60% and less than 85%),5 (Grade 5: the growth control rate is greater than or equal to 85%),5 (Grade 5: the growth control rate is greater than or equal to 85%),2 (Grade 2: the growth control rate is greater than or equal to 20% and less than 40%),3 (Grade 3: the growth control rate is greater than or equal to 40% and less than 60%),4 (Grade 4: the growth control rate is greater than or equal to 60% and less than 85%),4 (Grade 4: the growth control rate is greater than or equal to 60% and less than 85%),5 (Grade 5: the growth control rate is greater than or equal to 85%),5 (Grade 5: the growth control rate is greater than or equal to 85%),1 (Grade 1: the growth control rate is greater than or equal to 5% and less than 20%),2 (Grade 2: the growth control rate is greater than or equal to 20% and less than 40%),3 (Grade 3: the growth control rate is greater than or equal to 40% and less than 60%),5 (Grade 5: the growth control rate is greater than or equal to 85%),5 (Grade 5: the growth control rate is greater than or equal to 85%),5 (Grade 5: the growth control rate is greater than or equal to 85%),5 (Grade 5: the growth control rate is greater than or equal to 85%),5 (Grade 5: the growth control rate is greater than or equal to 85%),5 (Grade 5: the growth control rate is greater than or equal to 85%)
